Measured values from ChEMBL document CHEMBL1159178, “The use of a proline ring as a conformational restraint in CCK-B receptor dipeptoids” (Bioorg Med Chem Lett, 1992).
Each block holds one molecule with its values, some of them ahead of it.

How the values were obtained:
[1] = target: T1, Cholecystokinin receptor type A (Rattus norvegicus, UniProt P30551); assay: Evaluated for in vitro binding affinity to cholecystokinin-A (CCK-A) receptor in homogenized rat pancreas using [125I]bolton hunter CCK-26-33 as radioligand; 770-2020
T1 sequence (P30551 whole entry): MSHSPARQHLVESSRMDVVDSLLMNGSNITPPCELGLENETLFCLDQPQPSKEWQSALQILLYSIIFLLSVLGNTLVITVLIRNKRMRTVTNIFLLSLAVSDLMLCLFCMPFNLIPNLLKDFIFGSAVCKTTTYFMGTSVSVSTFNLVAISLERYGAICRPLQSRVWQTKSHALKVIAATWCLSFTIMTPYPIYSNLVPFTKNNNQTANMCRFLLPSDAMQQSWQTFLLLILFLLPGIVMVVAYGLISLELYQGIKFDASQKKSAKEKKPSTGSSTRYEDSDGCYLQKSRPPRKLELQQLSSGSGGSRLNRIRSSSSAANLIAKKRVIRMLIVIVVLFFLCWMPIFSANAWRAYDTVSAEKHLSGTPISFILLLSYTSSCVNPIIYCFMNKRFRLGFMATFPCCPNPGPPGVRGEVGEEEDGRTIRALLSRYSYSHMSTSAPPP

[2] = target: T2, Gastrin/cholecystokinin type B receptor (Mus musculus, UniProt P56481); assay: Evaluated for in vitro binding affinity towards cholecystokinin-B (CCK-B) receptor in mouse cerebral cortex using [125I]bolton hunter CCK-26-33 as radioligand; 365-1590; assay type: tissue-based
T2 sequence (P56481 whole entry): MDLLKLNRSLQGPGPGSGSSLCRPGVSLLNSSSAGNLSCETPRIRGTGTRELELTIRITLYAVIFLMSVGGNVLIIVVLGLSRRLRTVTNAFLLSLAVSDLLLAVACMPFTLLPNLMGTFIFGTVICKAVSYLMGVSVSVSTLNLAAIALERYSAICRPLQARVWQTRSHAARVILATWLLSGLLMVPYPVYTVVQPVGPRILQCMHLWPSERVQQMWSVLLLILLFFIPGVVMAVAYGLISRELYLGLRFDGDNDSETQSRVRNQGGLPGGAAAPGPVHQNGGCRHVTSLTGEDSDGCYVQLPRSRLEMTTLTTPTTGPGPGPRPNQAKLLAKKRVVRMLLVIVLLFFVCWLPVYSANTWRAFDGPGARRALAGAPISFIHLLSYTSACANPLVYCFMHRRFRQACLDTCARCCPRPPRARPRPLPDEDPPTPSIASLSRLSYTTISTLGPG

[3] = target: T2, Gastrin/cholecystokinin type B receptor; assay: Evaluated for in vitro binding affinity towards cholecystokinin-B (CCK-B) receptor in mouse cerebral cortex using [125I]bolton hunter CCK-26-33 as radioligand; 4.2-8.9; assay type: tissue-based
[4] = target: T1, Cholecystokinin receptor type A; assay: Evaluated for in vitro binding affinity to cholecystokinin-A (CCK-A) receptor in homogenized rat pancreas using [125I]bolton hunter CCK-26-33 as radioligand; 690-850
[5] = target: T2, Gastrin/cholecystokinin type B receptor; assay: Evaluated for in vitro binding affinity towards cholecystokinin-B (CCK-B) receptor in mouse cerebral cortex using [125I]bolton hunter CCK-26-33 as radioligand; 1790-2700; assay type: tissue-based
[6] = target: T1, Cholecystokinin receptor type A; assay: Evaluated for in vitro binding affinity to cholecystokinin-A (CCK-A) receptor in homogenized rat pancreas using [125I]bolton hunter CCK-26-33 as radioligand; 743-1710

IC50 [1]: 1080 nM
IC50 [2]: 852 nM
Compound: CC(Cc1c[nH]c2ccccc12)(NC(=O)OC1C2CC3CC(C2)CC1C3)C(=O)NC(CO)Cc1ccccc1 (stereo unspecified)

IC50 [3]: 6.3 nM
IC50 [4]: 780 nM
Compound: O=C(NC(Cc1c[nH]c2ccccc12)C(=O)NC(CO)Cc1ccccc1)OC1C2CC3CC(C2)CC1C3 (stereo unspecified)

IC50 [5]: 2080 nM
IC50 [6]: 1050 nM
Compound: O=C(OC1C2CC3CC(C2)CC1C3)N1CCCC1(Cc1c[nH]c2ccccc12)C(=O)NC(CO)Cc1ccccc1 (stereo unspecified)
